Where two headings read alike, the source gives them in different places.
How the values were obtained:
Format in all cases: cell-based
[1] = molecular target: T1, Human PPARα (Homo sapiens, UniProt Q07869); assay: Human PPARα Reporter Assay (luciferase)
T1 construct: host or cells: proprietary non-human mammalian cells
T1 sequence (Q07869 1-468): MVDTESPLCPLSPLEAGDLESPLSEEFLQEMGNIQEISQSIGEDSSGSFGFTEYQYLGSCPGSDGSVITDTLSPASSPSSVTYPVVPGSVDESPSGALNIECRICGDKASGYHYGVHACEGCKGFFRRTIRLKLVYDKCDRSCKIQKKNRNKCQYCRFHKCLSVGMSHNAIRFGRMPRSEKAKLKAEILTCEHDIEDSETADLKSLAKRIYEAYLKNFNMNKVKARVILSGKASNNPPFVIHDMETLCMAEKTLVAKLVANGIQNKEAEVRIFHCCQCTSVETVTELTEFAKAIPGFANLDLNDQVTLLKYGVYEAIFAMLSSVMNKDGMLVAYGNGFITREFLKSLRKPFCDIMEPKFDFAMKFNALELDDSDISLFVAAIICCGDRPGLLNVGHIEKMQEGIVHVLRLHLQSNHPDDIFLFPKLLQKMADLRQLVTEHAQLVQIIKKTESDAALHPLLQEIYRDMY
In short: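 Non-human mammalian cells constitutively expressing human PPARα with a PPARα-responsive luciferase reporter were dosed with compounds right after plating. After overnight incubation, media removed and detection reagent added; luminescence taken as proportional to PPARα activation, agonist or antagonist mode.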

[2] = molecular target: T2, PPAR beta/delta (Homo sapiens, UniProt Q03181); assay: Target selectivity counterscreen, PPAR β/δ reporter assay; settings: receptor agonist at ~EC80
T2 construct: host or cells: engineered reporter cells of the kit
T2 sequence (Q03181 1-441): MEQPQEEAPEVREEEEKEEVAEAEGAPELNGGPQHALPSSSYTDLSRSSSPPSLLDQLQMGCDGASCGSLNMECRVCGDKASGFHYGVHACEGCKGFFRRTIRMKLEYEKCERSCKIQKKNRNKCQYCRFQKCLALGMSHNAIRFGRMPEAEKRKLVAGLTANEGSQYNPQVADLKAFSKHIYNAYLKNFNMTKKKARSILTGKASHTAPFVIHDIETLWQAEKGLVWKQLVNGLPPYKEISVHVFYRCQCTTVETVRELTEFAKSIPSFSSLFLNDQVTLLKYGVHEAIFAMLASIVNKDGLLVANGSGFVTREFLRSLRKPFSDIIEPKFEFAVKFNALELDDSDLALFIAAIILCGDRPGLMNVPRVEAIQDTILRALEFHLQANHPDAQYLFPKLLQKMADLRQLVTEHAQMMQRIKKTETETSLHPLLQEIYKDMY
Protocol: (§1) Target Selectivity Assays
(§2) To determine species selectivity, a Mouse PPARα Reporter Assay System was used (Indigo Biosciences, Cat. #M00111). Activity of test compounds to antagonize or agonize other isoforms of human PPAR, for example β/δ and γ, were assessed using the corresponding kits from Indigo Biosciences (Cat. #IB00121 and #IB00101, respectively). In addition to PPAR activity, compounds were also screened for activity against other nuclear hormone receptors including Estrogen Receptor β, Glucocorticoid Receptor and Thyroid Receptor β using commercially available kits (Indigo Biosciences, Cat. #IB00411, IB00201 and IB01101, respectively). Each assay system from Indigo Biosciences uses technology analogous to the human PPARα kit, with the variance being that the cells used for each assay were engineered to over-express the receptor of interest. In addition, the appropriate receptor agonist (included with each kit) was used at ˜EC80 for assays in which antagonist potency was being assessed.

[3] = molecular target: T3, PPAR gamma (Homo sapiens, UniProt P37231); assay: Target selectivity counterscreen, PPAR γ reporter assay; settings: receptor agonist at ~EC80
T3 construct: host or cells: engineered reporter cells of the kit
T3 sequence (P37231 1-505): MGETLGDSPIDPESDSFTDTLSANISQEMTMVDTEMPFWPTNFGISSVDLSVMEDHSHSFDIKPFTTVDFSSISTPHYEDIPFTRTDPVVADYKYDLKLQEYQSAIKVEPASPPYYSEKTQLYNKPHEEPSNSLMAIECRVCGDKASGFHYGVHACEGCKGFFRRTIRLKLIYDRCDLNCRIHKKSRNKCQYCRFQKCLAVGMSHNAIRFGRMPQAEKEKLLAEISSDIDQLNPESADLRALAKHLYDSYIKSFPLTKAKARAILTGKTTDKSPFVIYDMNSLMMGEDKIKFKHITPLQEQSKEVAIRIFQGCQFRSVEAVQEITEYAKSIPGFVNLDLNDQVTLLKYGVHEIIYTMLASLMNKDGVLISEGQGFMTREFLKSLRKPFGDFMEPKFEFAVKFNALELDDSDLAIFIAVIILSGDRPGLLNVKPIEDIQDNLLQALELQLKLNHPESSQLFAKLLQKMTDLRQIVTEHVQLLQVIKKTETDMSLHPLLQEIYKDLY
Protocol: as §1, §2

[4] = molecular target: T4, Thyroid Receptor β (Homo sapiens, UniProt P10828); assay: Target selectivity counterscreen, Thyroid Receptor β reporter assay; settings: receptor agonist at ~EC80
T4 construct: host or cells: engineered reporter cells of the kit
T4 sequence (P10828 1-461): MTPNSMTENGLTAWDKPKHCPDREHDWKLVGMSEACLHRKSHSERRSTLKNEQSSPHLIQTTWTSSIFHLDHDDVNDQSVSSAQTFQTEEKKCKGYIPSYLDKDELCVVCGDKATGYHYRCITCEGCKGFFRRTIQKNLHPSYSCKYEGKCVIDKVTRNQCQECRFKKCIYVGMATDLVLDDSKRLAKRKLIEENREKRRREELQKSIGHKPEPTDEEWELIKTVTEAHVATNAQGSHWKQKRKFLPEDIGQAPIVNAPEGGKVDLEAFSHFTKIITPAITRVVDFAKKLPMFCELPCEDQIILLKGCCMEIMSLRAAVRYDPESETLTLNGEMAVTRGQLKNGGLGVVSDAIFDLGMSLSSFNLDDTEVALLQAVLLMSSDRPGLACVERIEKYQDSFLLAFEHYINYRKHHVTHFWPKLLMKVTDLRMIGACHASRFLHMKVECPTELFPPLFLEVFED
Protocol: as §1, §2

[5] = molecular target: T5, Glucocorticoid Receptor (Homo sapiens, UniProt P04150); assay: Target selectivity counterscreen, Glucocorticoid Receptor reporter assay; settings: receptor agonist at ~EC80
T5 construct: host or cells: engineered reporter cells of the kit
T5 sequence (P04150 1-777): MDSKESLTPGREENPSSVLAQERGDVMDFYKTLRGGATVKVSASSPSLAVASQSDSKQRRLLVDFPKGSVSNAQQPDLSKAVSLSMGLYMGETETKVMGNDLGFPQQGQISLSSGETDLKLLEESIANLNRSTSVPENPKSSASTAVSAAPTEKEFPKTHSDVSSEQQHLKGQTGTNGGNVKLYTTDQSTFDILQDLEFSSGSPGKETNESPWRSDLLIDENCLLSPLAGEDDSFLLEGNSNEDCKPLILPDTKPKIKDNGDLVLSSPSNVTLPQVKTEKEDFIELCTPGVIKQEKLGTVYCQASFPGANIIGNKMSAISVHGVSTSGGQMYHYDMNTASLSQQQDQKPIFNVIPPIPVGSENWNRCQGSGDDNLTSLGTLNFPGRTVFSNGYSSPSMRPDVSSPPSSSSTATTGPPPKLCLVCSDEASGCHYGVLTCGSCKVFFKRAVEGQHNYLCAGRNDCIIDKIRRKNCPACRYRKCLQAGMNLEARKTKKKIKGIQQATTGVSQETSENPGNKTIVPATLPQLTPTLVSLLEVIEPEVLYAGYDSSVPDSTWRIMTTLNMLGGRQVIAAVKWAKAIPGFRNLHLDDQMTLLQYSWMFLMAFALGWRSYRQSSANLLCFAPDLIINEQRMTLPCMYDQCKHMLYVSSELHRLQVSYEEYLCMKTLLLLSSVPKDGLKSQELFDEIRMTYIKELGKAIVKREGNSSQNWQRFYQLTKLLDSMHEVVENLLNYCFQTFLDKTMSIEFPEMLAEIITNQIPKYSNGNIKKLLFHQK
Protocol: as §1, §2

[6] = molecular target: T6, Estrogen Receptor β (Homo sapiens, UniProt Q92731); assay: Target selectivity counterscreen, Estrogen Receptor β reporter assay; settings: receptor agonist at ~EC80
T6 construct: host or cells: engineered reporter cells of the kit
T6 sequence (Q92731 whole entry): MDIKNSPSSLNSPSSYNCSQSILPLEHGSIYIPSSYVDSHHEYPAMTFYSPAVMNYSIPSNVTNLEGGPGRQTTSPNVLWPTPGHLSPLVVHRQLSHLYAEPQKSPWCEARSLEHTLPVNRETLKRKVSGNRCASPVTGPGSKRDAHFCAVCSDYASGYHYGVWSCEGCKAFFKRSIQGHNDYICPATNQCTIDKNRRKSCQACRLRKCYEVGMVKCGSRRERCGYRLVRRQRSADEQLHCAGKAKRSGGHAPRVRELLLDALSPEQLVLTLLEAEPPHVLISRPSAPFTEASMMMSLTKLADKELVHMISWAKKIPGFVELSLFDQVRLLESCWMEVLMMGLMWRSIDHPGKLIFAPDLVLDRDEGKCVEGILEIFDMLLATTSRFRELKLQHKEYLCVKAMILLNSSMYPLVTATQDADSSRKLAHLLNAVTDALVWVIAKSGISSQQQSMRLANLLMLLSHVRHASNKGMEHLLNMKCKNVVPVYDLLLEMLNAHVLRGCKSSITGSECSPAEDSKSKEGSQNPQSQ
Protocol: as §1, §2

[7] = human PPARα reporter cells, overnight incubation, antagonism, read-out: Luciferase IC50

IC50 ([1]; counterscreen table, antagonist potency, read-out: PPAR alpha IC50)	IC50 [1, 7]	IC50 [2]	IC50 [3]	IC50 [4]	IC50 [5]	IC50 [6]	SMILES
0.025 µM	7.31 µM	> 50 µM	> 50 µM	> 10 µM	> 10 µM	17.5 µM	CCn1c(CCCc2ccc(-c3cccc(CC(=O)O)c3)cc2)nn(Cc2ccccc2)c1=O [Example 23, 2-(4′-(3-(1-Benzyl-4-ethyl-5-oxo-4,5-dihydro-1H-1,2,4-triazol-3-yl)propyl)-[1,1′-biphenyl]-3-yl)acetic acid]
	0.873 µM						CCn1c(CCCc2ccc(-c3csc(C4(O)COC4)n3)cc2)nn(Cc2ccc(C(C)(C)C)cc2)c1=O [Example 203, 1-(4-(tert-Butyl)benzyl)-4-ethyl-3-(3-(4-(2-(3-hydroxyoxetan-3-yl)thiazol-4-yl)phenyl)propyl)-1H-1,2,4-triazol-5(4H)-one]
	0.05 µM						CCn1c(CCCc2ccc(-c3cnc(C4(O)COC4)s3)cc2)nn(Cc2ccc(C(C)(C)C)cc2)c1=O [Example 204, 1-(4-(tert-Butyl)benzyl)-4-ethyl-3-(3-(4-(2-(3-hydroxyoxetan-3-yl)thiazol-5-yl)phenyl)propyl)-1H-1,2,4-triazol-5(4H)-one]

Source: US9505728B2, “Triazolone compounds and uses thereof” (INCEPTION 2, INC., priority 2012, dated 2016)
